Test results: US12281122B1, “PI3K inhibitors” (Cogent Biosciences, Inc., priority 2023, dated 2025)

Key:
[1] = system: SKBR3 (PI3Kα-Wild Type) cell line; test: HTRF phospho-AKT(S473) cell assay in SKBR3 cells; type: cell-based, human
Outline: (§1)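 T47D: RPMI + 10% FBS + 0.2 units/mL insulin, top 5 μM. SKBR3: McCoy's 5A + 10% FBS, top 10 μM, 70 ng/ml PDGF-BB last 15 min. Both: 12-pt 1:3, 2 h, 37° C, max 0.5% DMSO; HTRF pAKT(S473); IC50.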

[2] = system: T47D (PI3Kα-H1047R) cell line; test: HTRF phospho-AKT(S473) cell assay in T47D cells; type: cell-based, human
Outline: as §1

[3] = Homo sapiens, SK-BR-3; HTRF phospho-AKT(S473), SKBR3 (PI3Kα-Wild Type) cells, 2 hours compound incubation, PDGF-BB stimulated
[4] = Homo sapiens; HTRF phospho-AKT(S473), T47D (PI3Kα-H1047R) cells, 2 hours compound incubation
[5] = Homo sapiens, SK-BR-3; SKBR3 (PI3Kα-Wild Type) cells, HTRF phospho-AKT(S473), 2 hours compound incubation, PDGF-BB stimulated
[6] = Homo sapiens; T47D (PI3Kα-H1047R) cells, HTRF phospho-AKT(S473), 2 hours compound incubation

Row | IC50 [1, 3] [nM] | IC50 [2, 4] [nM] | IC50 [1, 5] [nM] | IC50 [2, 6] [nM] | Structure (SMILES)
1 | 1000 to 5000 | 250 to 500 | – | – | Cc1cc([C@@H](C)Nc2ccc(Cl)nc2C(=O)NS(C)(=O)=O)c2nc(N3CCN(c4ccc(F)cn4)CC3)n(C)c(=O)c2c1 [Compound 574, (R)-6-chloro-3-((1-(2-(4-(5-fluoropyridin-2-yl)piperazin-1-yl)-3,6-dimethyl-4-oxo-3,4-dihydroquinazolin-8-yl)ethyl)amino)-N-(methylsulfonyl) picolinamide]
2 | – | – | 1000 to 5000 | 250 to 500 | COc1cccnc1-n1cc2c(n1)CN(c1nc3c([C@@H](C)Nc4ccc(Cl)nc4C(=O)NS(C)(=O)=O)cc(C)cc3c(=O)n1C)C2 [Compound 327, (R)-6-chloro-3-((1-(2-(2-(3-methoxypyridin-2-yl)-2,6-dihydropyrrolo[3,4-c]pyrazol-5(4H)-yl)-3,6-dimethyl-4-oxo-3,4-dihydroquinazolin-8-yl)ethyl)amino)-N-(methylsulfonyl) picolinamide]
3 | 1000 to 5000 | < 250 | – | – | Cc1cc([C@@H](C)Nc2ccc(Cl)nc2C(=O)NS(C)(=O)=O)c2nc(N3CCC(c4cc(C)[nH]n4)CC3)n(C)c(=O)c2c1 [Compound 715, (R)-6-chloro-3-((1-(3,6-dimethyl-2-(4-(5-methyl-1H-pyrazol-3-yl)piperidin-1-yl)-4-oxo-3,4-dihydroquinazolin-8-yl)ethyl)amino)-N-(methylsulfonyl) picolinamide]
4 | 1000 to 5000 | 250 to 500 | – | – | Cc1cc([C@@H](C)Nc2ccc(Cl)nc2C(=O)NS(C)(=O)=O)c2nc(-c3ccc4c(c3)C(=O)N(C)C4)n(C)c(=O)c2c1 [Compound 776, (R)-6-chloro-3-((1-(3,6-dimethyl-2-(2-methyl-3-oxoisoindolin-5-yl)-4-oxo-3,4-dihydroquinazolin-8-yl)ethyl)amino)-N-(methylsulfonyl) picolinamide]
5 | 1000 to 5000 | < 250 | – | – | COCCn1ncc2cc(-c3nc4c([C@@H](C)Nc5ccc(Cl)nc5C(=O)NS(C)(=O)=O)cc(C)cc4c(=O)n3C)ccc21 [Compound 791, (R)-6-chloro-3-((1-(2-(1-(2-methoxyethyl)-1H-indazol-5-yl)-3,6-dimethyl-4-oxo-3,4-dihydroquinazolin-8-yl)ethyl)amino)-N-(methylsulfonyl) picolinamide]
6 | 1000 to 5000 | < 250 | – | – | Cc1cc([C@@H](C)Nc2ccc(Cl)nc2C(=O)NS(C)(=O)=O)c2nc(N3CCC(c4cc(C)on4)CC3)n(C)c(=O)c2c1 [Compound 571, (R)-6-chloro-3-((1-(3,6-dimethyl-2-(4-(5-methylisoxazol-3-yl)piperidin-1-yl)-4-oxo-3,4-dihydroquinazolin-8-yl)ethyl)amino)-N-(methylsulfonyl) picolinamide]
7 | 1000 to 5000 | < 250 | – | – | Cc1cc([C@@H](C)Nc2ccc(Cl)nc2C(=O)NS(C)(=O)=O)c2nc(N3C[C@@H]4[C@H](C3)[C@H]4c3nnn(C)c3C)n(C)c(=O)c2c1 [Compound 498, 6-chloro-3-(((R)-1-(2-((1R,5S,6R)-6-(1,5-dimethyl-1H-1,2,3-triazol-4-yl)-3-azabicyclo[3.1.0]hexan-3-yl)-3,6-dimethyl-4-oxo-3,4-dihydroquinazolin-8-yl)ethyl)amino)-N-(methylsulfonyl) picolinamide]
8 | – | – | ≥ 5000 | < 250 | Cc1cc([C@@H](C)Nc2ccc(Cl)nc2C(=O)NS(C)(=O)=O)c2nc(N3Cc4nn(-c5ccccc5C)c(N)c4C3)n(C)c(=O)c2c1 [Compound 350, (R)-3-((1-(2-(3-amino-2-(o-tolyl)-2,6-dihydropyrrolo[3,4-c]pyrazol-5(4H)-yl)-3,6-dimethyl-4-oxo-3,4-dihydroquinazolin-8-yl)ethyl)amino)-6-chloro-N-(methylsulfonyl) picolinamide]
9 | ≥ 5000 | 250 to 500 | – | – | Cc1cc([C@@H](C)Nc2ccc(Cl)nc2C(=O)NS(C)(=O)=O)c2nc(-c3ccn4nc(C)nc4c3)n(C)c(=O)c2c1 [Compound 822, (R)-6-chloro-3-((1-(3,6-dimethyl-2-(2-methyl-[1,2,4]triazolo[1,5-a]pyridin-7-yl)-4-oxo-3,4-dihydroquinazolin-8-yl)ethyl)amino)-N-(methylsulfonyl) picolinamide]
10 | 1000 to 5000 | < 250 | – | – | Cc1cc([C@@H](C)Nc2ccc(Cl)nc2C(=O)NS(C)(=O)=O)c2nc(N3C[C@@H]4[C@H](C3)[C@H]4c3noc(C)n3)n(C)c(=O)c2c1 [Compound 465, 6-chloro-3-(((R)-1-(3,6-dimethyl-2-((1R,5S,6R)-6-(5-methyl-1,2,4-oxadiazol-3-yl)-3-azabicyclo[3.1.0]hexan-3-yl)-4-oxo-3,4-dihydroquinazolin-8-yl)ethyl)amino)-N-(methylsulfonyl) picolinamide]
11 | ≥ 5000 | < 250 | – | – | Cc1cc([C@@H](C)Nc2ccc(Cl)nc2C(=O)NS(C)(=O)=O)c2nc(N3CCC(c4nc(C)co4)CC3)n(C)c(=O)c2c1 [Compound 545, (R)-6-chloro-3-((1-(3,6-dimethyl-2-(4-(4-methyloxazol-2-yl)piperidin-1-yl)-4-oxo-3,4-dihydroquinazolin-8-yl)ethyl)amino)-N-(methylsulfonyl) picolinamide]
12 | 1000 to 5000 | < 250 | – | – | Cc1cc([C@@H](C)Nc2ccc(Cl)nc2C(=O)NS(C)(=O)=O)c2nc(-c3ccc4nn(C)nc4c3)n(C)c(=O)c2c1 [Compound 781, (R)-6-chloro-3-((1-(3,6-dimethyl-2-(2-methyl-2H-benzo[d][1,2,3]triazol-5-yl)-4-oxo-3,4-dihydroquinazolin-8-yl)ethyl)amino)-N-(methylsulfonyl) picolinamide]

Second part, the compound before the results:

Row | Structure (SMILES) | IC50 [1, 3] [nM] | IC50 [2, 4] [nM] | IC50 [1, 5] [nM] | IC50 [2, 6] [nM]
13 | Cc1cc([C@@H](C)Nc2ccc(Cl)nc2C(=O)NS(C)(=O)=O)c2nc(N3C[C@@H]4[C@H](C3)[C@H]4c3cc4ccccn4n3)n(C)c(=O)c2c1 [Compound 473] | ≥ 5000 | 250 to 500 | – | –
14 | Cc1cc([C@@H](C)Nc2ccc(Cl)nc2C(=O)NS(C)(=O)=O)c2nc(N3CC[C@@H](Oc4cnn(CC(F)(F)F)c4)C3)n(C)c(=O)c2c1 [Compound 329, 6-chloro-3-(((R)-1-(3,6-dimethyl-4-oxo-2-((R)-3-((1-(2,2,2-trifluoroethyl)-1H-pyrazol-4-yl)oxy)pyrrolidin-1-yl)-3,4-dihydroquinazolin-8-yl)ethyl)amino)-N-(methylsulfonyl) picolinamide] | – | – | 1000 to 5000 | < 250
15 | Cc1cc([C@@H](C)Nc2ccc(Cl)nc2C(=O)NS(C)(=O)=O)c2nc(N3C[C@H]4C[C@@H]3C[C@@H]4c3nn(C)cc3F)n(C)c(=O)c2c1 (relative stereo) [Compound 443, 6-chloro-3-(((R)-1-(2-((1R*,4S*,5S*)-5-(4-fluoro-1-methyl-1H-pyrazol-3-yl)-2-azabicyclo[2.2.1]heptan-2-yl)-3,6-dimethyl-4-oxo-3,4-dihydroquinazolin-8-yl)ethyl)amino)-N-(methylsulfonyl) picolinamide] | 1000 to 5000 | 250 to 500 | – | –
16 | Cc1cc([C@@H](C)Nc2ccc(Cl)nc2C(=O)NS(C)(=O)=O)c2nc(N3C[C@@H]4C[C@H]3CN4c3nccnc3C)n(C)c(=O)c2c1 [Compound 726, 6-chloro-3-(((R)-1-(3,6-dimethyl-2-((1S,4S)-5-(3-methylpyrazin-2-yl)-2,5-diazabicyclo[2.2.1]heptan-2-yl)-4-oxo-3,4-dihydroquinazolin-8-yl)ethyl)amino)-N-(methylsulfonyl) picolinamide] | 1000 to 5000 | 250 to 500 | – | –
17 | C[C@@H](Nc1ccc(Cl)nc1C(=O)NS(C)(=O)=O)c1cc(C2CC2)cc2c(=O)n(C)c(N3C[C@@H]4[C@H](C3)[C@H]4c3ccn(C)n3)nc12 [Compound 382, 6-chloro-3-(((R)-1-(6-cyclopropyl-3-methyl-2-((1R,5S,6R)-6-(1-methyl-1H-pyrazol-3-yl)-3-azabicyclo[3.1.0]hexan-3-yl)-4-oxo-3,4-dihydroquinazolin-8-yl)ethyl)amino)-N-(methylsulfonyl) picolinamide] | – | – | 1000 to 5000 | 250 to 500
18 | Cc1cnc(N2C[C@H]3C[C@@H]2CN3c2nc3c([C@@H](C)Nc4ccc(Cl)nc4C(=O)NS(C)(=O)=O)cc(C)cc3c(=O)n2C)nc1 [Compound 565, 6-chloro-3-(((R)-1-(3,6-dimethyl-2-((1R,4R)-5-(5-methylpyrimidin-2-yl)-2,5-diazabicyclo[2.2.1]heptan-2-yl)-4-oxo-3,4-dihydroquinazolin-8-yl)ethyl)amino)-N-(methylsulfonyl) picolinamide] | ≥ 5000 | 250 to 500 | – | –
19 | Cc1cc([C@@H](C)Nc2ccc(Cl)nc2C(=O)NS(C)(=O)=O)c2nc(N3CC[C@H](Oc4ncc(F)cn4)C3)n(C)c(=O)c2c1 [Compound 537, 6-chloro-3-(((R)-1-(2-((S)-3-((5-fluoropyrimidin-2-yl)oxy)pyrrolidin-1-yl)-3,6-dimethyl-4-oxo-3,4-dihydroquinazolin-8-yl)ethyl)amino)-N-(methylsulfonyl) picolinamide] | ≥ 5000 | 250 to 500 | – | –
20 | CCn1c(N2CCC(c3nn(C)cc3F)CC2)nc2c([C@@H](C)Nc3ccc(Cl)nc3C(=O)NS(C)(=O)=O)cc(C)cc2c1=O [Compound 433, (R)-6-chloro-3-((1-(3-ethyl-2-(4-(4-fluoro-1-methyl-1H-pyrazol-3-yl)piperidin-1-yl)-6-methyl-4-oxo-3,4-dihydroquinazolin-8-yl)ethyl)amino)-N-(methylsulfonyl) picolinamide] | – | – | ≥ 5000 | < 250
